Results from ChEMBL document CHEMBL3232829, “Synthesis and multitarget biological profiling of a novel family of rhein derivatives as disease-modifying anti-Alzheimer agents” (J Med Chem, 2014).
Calls of active or inactive are those of the source. The calls are words filed in the database; no cut-off is given here.

How the values were obtained:
Beta-secretase 1 [1] = molecular target: T1, Beta-secretase 1 (Homo sapiens, UniProt P56817); assay: Inhibition of human recombinant BACE1 using methoxycoumarin-Ser-Glu-Val-Asn-Leu-Asp-Ala-Glu-Phe-Lys-dinitrophenyl as substrate preincubated for 1 hr by FRET assay
[2] = Permeability of the compound by PAMPA assay; type: physicochemical; conditions: read-out: permeability
[3] = molecular target: Amyloid-beta precursor protein (Homo sapiens) (UniProt P05067); assay: Inhibition of aggregation of amyloid beta-42 (unknown origin) expressed in Escherichia coli BL21 (DE3) assessed as amyloid fibril formation at 10 uM after 24 hrs by thioflavin S fluorescence method
[4] = molecular target: Microtubule-associated protein tau (Homo sapiens) (UniProt P10636); assay: Inhibition of aggregation of tau protein (unknown origin) expressed in Escherichia coli BL21 (DE3) assessed as amyloid fibril formation at 10 uM after 24 hrs by thioflavin S fluorescence method
Acetylcholinesterase = Acetylcholinesterase (Homo sapiens, UniProt P22303)
Description: Inhibition of human recombinant AChE using acetylthiocholine iodide as substrate preincubated for 20 mins by Ellman's method

[5] = molecular target: Amyloid-beta precursor protein (Homo sapiens) (UniProt P05067); assay: Inhibition of amyloid beta-42 (unknown origin) aggregation assessed as amyloid fibril formation at 10 uM after 24 hrs by thioflavin T fluorescence method
Beta-secretase 1 [6] = molecular target: T1, Beta-secretase 1; conditions: 5 uM
Hippocampus [7] = assay: Neuroprotective activity against amyloid beta-42-induced synaptic failure in C57bl6 mouse hippocampal slices assessed as induction of long-term potentiation at 10 uM after 1 hr by electrophysiology assay relative to control; type: functional
Hippocampus [8] = assay: Neuroprotective activity against amyloid beta-42-induced synaptic failure in C57bl6 mouse hippocampal slices assessed as induction of field excitatory postsynaptic potential at 10 uM after 1 hr by electrophysiology assay relative to control; type: functional
Hippocampus [9] = assay: Neuroprotective activity against amyloid beta-42-induced synaptic failure in C57bl6 mouse hippocampal slices assessed as increase of VGlut1 protein level at 1 to 100 uM uM after 1 hr by Western blot analysis; type: functional, tissue-based
Hippocampus [10] = assay: Neuroprotective activity against amyloid beta-42-induced synaptic failure in C57bl6 mouse hippocampal slices assessed as increase of SYN protein level at 1 to 100 uM uM after 1 hr by Western blot analysis; type: functional, tissue-based
Hippocampus [11] = assay: Neuroprotective activity against amyloid beta-42-induced synaptic failure in C57bl6 mouse hippocampal slices assessed as increase of SYP protein level at 1 to 100 uM uM after 1 hr by Western blot analysis; type: functional, tissue-based
Hippocampus [12] = assay: Neuroprotective activity against amyloid beta-42-induced synaptic failure in C57bl6 mouse hippocampal slices assessed as increase of GluA2 protein level at 1 to 100 uM uM after 1 hr by Western blot analysis; type: functional, tissue-based
Hippocampus [13] = assay: Neuroprotective activity against amyloid beta-42-induced synaptic failure in C57bl6 mouse hippocampal slices assessed as increase of PSD95 protein level at 1 to 100 uM uM after 1 hr by Western blot analysis; type: functional, tissue-based
Mus musculus [14] = assay: Antialzheimer activity in APP-PS1 transgenic 7 month old mouse hippocampus assessed as reduction of dodecamer of amyloid beta level at 2 mg/kg, ip administered 3 times in a week for 4 weeks by immunoblot analysis; type: functional, organism-based; design: dose 2 mg/kg
Mus musculus [15] = assay: Antialzheimer activity in APP-PS1 transgenic 11 month old mouse hippocampus assessed as reduction of dodecamer of amyloid beta level at 2 mg/kg, ip administered 3 times in a week for 4 weeks by immunoblot analysis; type: functional, organism-based; design: dose 2 mg/kg
Mus musculus [16] = assay: Antialzheimer activity in APP-PS1 transgenic 7 month old mouse hippocampus assessed as reduction of hexamers of amyloid beta level at 2 mg/kg, ip administered 3 times in a week for 4 weeks by immunoblot analysis; type: functional, organism-based; design: dose 2 mg/kg
Hippocampus [17] = assay: Neuroprotective activity against amyloid beta-42-induced synaptic failure in C57bl6 mouse hippocampal slices assessed as increase of GluA2 protein level at 10 to 100 uM uM after 1 hr by Western blot analysis; type: functional, tissue-based
Hippocampus [18] = assay: Neuroprotective activity against amyloid beta-42-induced synaptic failure in C57bl6 mouse hippocampal slices assessed as increase of PSD95 protein level at 10 to 100 uM uM after 1 hr by Western blot analysis; type: functional, tissue-based
Mus musculus [19] = assay: Antialzheimer activity in APP-PS1 transgenic 11 month old mouse hippocampus assessed as reduction of hexamers of amyloid beta level at 2 mg/kg, ip administered 3 times in a week for 4 weeks by immunoblot analysis; type: functional, organism-based; design: dose 2 mg/kg
Cholinesterase = Cholinesterase (Homo sapiens, UniProt P06276); assay: Inhibition of human serum BChE using butyrylthiocholine iodide as substrate preincubated for 20 mins by Ellman's method
Beta-secretase 1 [20] = molecular target: T1, Beta-secretase 1; assay: Inhibition of human recombinant BACE1 using methoxycoumarin-Ser-Glu-Val-Asn-Leu-Asp-Ala-Glu-Phe-Lys-dinitrophenyl as substrate at 1 uM preincubated for 1 hr by FRET assay

Sequence of Cholinesterase (P06276 whole entry): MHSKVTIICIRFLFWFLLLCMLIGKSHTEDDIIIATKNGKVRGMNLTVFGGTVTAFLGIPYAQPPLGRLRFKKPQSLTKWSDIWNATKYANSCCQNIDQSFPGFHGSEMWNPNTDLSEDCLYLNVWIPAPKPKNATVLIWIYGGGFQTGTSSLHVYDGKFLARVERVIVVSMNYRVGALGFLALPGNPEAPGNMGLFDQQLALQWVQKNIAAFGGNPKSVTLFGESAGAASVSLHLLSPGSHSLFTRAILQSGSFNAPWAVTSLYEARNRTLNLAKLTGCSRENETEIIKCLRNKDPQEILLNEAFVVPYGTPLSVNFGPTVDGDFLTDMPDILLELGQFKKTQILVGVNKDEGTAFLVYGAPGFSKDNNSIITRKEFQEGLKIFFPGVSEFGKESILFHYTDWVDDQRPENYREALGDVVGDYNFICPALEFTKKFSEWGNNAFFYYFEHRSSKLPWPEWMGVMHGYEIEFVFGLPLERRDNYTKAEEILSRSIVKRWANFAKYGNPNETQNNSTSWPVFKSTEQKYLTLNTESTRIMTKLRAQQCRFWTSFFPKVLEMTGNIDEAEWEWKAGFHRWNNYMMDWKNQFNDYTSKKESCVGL
Sequence of Amyloid-beta precursor protein (Homo sapiens) (P05067 whole entry): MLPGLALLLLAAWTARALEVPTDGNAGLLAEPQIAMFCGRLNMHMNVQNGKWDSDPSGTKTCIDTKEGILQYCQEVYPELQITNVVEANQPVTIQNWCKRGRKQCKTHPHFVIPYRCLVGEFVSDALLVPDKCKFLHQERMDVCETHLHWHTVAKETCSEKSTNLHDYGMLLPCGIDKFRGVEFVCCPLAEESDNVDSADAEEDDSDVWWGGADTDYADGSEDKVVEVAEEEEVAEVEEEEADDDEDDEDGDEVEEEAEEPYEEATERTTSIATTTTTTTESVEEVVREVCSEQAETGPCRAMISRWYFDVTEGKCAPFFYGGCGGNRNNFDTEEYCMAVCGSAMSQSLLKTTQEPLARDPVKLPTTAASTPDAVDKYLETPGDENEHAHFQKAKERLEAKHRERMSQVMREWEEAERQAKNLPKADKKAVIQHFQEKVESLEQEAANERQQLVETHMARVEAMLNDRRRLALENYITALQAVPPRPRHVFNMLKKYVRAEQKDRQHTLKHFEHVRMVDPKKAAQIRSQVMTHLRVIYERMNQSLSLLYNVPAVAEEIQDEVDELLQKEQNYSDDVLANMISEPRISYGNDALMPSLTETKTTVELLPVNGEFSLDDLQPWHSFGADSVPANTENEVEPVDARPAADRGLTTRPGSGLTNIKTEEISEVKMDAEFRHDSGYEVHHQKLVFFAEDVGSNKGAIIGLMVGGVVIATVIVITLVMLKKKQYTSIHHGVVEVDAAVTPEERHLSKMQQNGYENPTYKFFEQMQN
T1 sequence (P56817 whole entry): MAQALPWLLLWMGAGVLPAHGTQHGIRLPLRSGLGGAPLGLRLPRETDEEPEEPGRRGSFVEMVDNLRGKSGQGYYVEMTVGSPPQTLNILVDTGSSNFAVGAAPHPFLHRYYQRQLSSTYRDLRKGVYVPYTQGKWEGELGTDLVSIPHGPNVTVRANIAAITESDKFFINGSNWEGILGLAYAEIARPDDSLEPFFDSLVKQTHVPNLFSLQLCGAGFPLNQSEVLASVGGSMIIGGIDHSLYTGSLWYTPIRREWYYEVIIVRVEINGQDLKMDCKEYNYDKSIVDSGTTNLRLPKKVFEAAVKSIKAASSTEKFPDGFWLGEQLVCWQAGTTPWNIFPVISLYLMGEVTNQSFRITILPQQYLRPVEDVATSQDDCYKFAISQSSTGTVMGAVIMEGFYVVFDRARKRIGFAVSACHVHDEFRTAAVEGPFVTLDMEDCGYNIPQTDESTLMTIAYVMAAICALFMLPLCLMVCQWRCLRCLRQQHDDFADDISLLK
Sequence of Microtubule-associated protein tau (Homo sapiens) (P10636 whole entry): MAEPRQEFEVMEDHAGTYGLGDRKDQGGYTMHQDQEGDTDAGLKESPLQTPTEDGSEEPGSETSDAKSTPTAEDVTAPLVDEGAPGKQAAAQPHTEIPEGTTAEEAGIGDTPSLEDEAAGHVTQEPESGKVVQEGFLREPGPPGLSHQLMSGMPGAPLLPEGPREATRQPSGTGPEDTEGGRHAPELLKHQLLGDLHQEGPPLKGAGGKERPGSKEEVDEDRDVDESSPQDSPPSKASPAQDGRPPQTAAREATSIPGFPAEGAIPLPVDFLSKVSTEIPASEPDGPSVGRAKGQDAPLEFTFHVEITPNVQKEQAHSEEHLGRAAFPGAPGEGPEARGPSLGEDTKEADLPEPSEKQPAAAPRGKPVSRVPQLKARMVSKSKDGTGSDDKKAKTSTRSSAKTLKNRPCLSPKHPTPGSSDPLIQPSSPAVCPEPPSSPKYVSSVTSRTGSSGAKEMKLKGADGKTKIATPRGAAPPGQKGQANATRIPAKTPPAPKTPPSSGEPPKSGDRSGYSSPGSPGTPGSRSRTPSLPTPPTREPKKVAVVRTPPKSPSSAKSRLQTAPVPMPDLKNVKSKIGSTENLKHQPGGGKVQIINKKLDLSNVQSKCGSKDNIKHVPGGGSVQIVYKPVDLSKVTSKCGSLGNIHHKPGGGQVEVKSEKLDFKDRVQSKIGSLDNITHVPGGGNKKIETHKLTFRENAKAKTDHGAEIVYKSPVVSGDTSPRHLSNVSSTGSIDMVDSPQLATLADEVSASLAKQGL
Sequence of Acetylcholinesterase (P22303 whole entry): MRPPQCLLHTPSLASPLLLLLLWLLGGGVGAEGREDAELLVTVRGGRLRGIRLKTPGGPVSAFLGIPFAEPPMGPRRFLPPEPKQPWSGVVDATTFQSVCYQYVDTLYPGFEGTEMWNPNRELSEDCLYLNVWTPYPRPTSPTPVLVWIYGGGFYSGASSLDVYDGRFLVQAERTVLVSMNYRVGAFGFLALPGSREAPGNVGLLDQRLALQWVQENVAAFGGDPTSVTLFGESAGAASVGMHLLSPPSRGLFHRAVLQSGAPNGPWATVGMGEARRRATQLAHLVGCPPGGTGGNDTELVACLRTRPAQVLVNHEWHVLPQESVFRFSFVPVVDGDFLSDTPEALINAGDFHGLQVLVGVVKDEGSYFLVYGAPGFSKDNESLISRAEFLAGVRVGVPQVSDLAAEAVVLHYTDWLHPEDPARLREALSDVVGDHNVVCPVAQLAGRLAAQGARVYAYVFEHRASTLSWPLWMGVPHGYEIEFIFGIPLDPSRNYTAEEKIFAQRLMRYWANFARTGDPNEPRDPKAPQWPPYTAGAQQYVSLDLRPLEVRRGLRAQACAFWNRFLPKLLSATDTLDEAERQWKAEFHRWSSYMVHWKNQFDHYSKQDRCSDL

O=C(O)c1cc(O)c2c(c1)C(=O)c1cccc(O)c1C2=O [RHEIN]
IC50 (Beta-secretase 1 [1]): Not Active
Papp [2]: 2.7 ×10⁻⁶ cm/s
inhibition [3]: 49.9%
inhibition [4]: 40.8%
IC50 (Acetylcholinesterase): > 10000 nM

CC1=CC2Cc3nc4cc(Cl)ccc4c(NCCCCCCCCCCCNC(=O)c4cc(O)c5c(c4)C(=O)c4cccc(O)c4C5=O)c3C(C1)C2.Cl (racemic)
IC50 (Beta-secretase 1 [1]; read-out: IC50): 1200 nM
inhibition [5]: 35.3%
Papp [2]: 16.4 ×10⁻⁶ cm/s
inhibition [3]: 40.7%
inhibition [4]: 46.3%

CC1=C[C@@H]2Cc3nc4cc(Cl)ccc4c(N)c3[C@H](C1)C2
IC50 (Beta-secretase 1 [1]; read-out: IC50): > 5000 nM
inhibition [5]: 11.5%
Papp [2]: 23.6 ×10⁻⁶ cm/s
inhibition (Beta-secretase 1 [6]): 14%

CC1=CC2Cc3nc4cc(Cl)ccc4c(NCc4ccc(CNC(=O)c5cc(O)c6c(c5)C(=O)c5cccc(O)c5C6=O)cc4)c3C(C1)C2.Cl (racemic)
IC50 (Beta-secretase 1 [1]; read-out: IC50): 2020 nM
inhibition [5]: 32.4%
Papp [2]: 16.3 ×10⁻⁶ cm/s
inhibition [3]: 57.9%
inhibition [4]: 23.1%

CC1=C[C@H]2Cc3nc4cc(Cl)ccc4c(N)c3[C@@H](C1)C2.Cl
IC50 (Beta-secretase 1 [1]; read-out: IC50): > 5000 nM
inhibition [5]: 13.2%
Papp [2]: 25.4 ×10⁻⁶ cm/s

CC1=C[C@H]2Cc3nc4cc(Cl)ccc4c(NCCCCCCCCCNC(=O)c4cc(O)c5c(c4)C(=O)c4cccc(O)c4C5=O)c3[C@@H](C1)C2.Cl
inhibition [5]: 38.4%
inhibition [3]: 58.6%
inhibition [4]: 24.9%
Activity (Hippocampus [7]): 200%
Activity (Hippocampus [8]): 200%
Activity (Hippocampus [9]): inactive
Activity (Hippocampus [10]): Active
Activity (Hippocampus [11]): inactive
Activity (Hippocampus [12]): Active
Activity (Hippocampus [13]): Active
Activity (Mus musculus [14]): Active
Activity (Mus musculus [15]): Active
Activity (Mus musculus [16]): Active

CC1=CC2Cc3nc4cc(Cl)ccc4c(N)c3C(C1)C2.Cl (racemic)
inhibition [3]: inactive
inhibition [4]: inactive

CC1=C[C@@H]2Cc3nc4cc(Cl)ccc4c(NCCCCCCCCCNC(=O)c4cc(O)c5c(c4)C(=O)c4cccc(O)c4C5=O)c3[C@H](C1)C2
inhibition [5]: 43.2%
inhibition [3]: 47.2%
inhibition [4]: 34.3%
Activity (Hippocampus [7]): inactive
Activity (Hippocampus [8]): inactive
Activity (Hippocampus [17]): Active
Activity (Hippocampus [18]): Active
Activity (Hippocampus [9]): Active
Activity (Hippocampus [10]): inactive
Activity (Hippocampus [11]): inactive
Activity (Mus musculus [14]): Active
Activity (Mus musculus [15]): Active
Activity (Mus musculus [16]): Active
Activity (Mus musculus [19]): inactive

CC1=CC2Cc3nc4cc(Cl)ccc4c(NCCCCCCCNC(=O)c4cc(O)c5c(c4)C(=O)c4cccc(O)c4C5=O)c3C(C1)C2.Cl (racemic)
IC50 (Cholinesterase): 1460 nM
inhibition (Beta-secretase 1 [20]): inactive
inhibition [5]: 40.6%
Papp [2]: 27.5 ×10⁻⁶ cm/s
inhibition [3]: 63.2%
inhibition [4]: 52%
IC50 (Acetylcholinesterase): 3.18 nM

CC1=CC2Cc3nc4cc(Cl)ccc4c(NCCCCCNC(=O)c4cc(O)c5c(c4)C(=O)c4cccc(O)c4C5=O)c3C(C1)C2.Cl (racemic)
IC50 (Cholinesterase): 950 nM
inhibition (Beta-secretase 1 [20]): inactive
inhibition [5]: 38.7%
Papp [2]: 20 ×10⁻⁶ cm/s
inhibition [3]: 68%
inhibition [4]: 43.7%
IC50 (Acetylcholinesterase): 1.07 nM

CC1=CC2Cc3nc4cc(Cl)ccc4c(NCCCCCCCCCCNC(=O)c4cc(O)c5c(c4)C(=O)c4cccc(O)c4C5=O)c3C(C1)C2.Cl (racemic)
IC50 (Beta-secretase 1 [1]; read-out: IC50): 1190 nM
inhibition [5]: 40.9%
Papp [2]: 18.1 ×10⁻⁶ cm/s
inhibition [3]: 43.3%
inhibition [4]: 57.1%

CC1=CC2Cc3nc4cc(Cl)ccc4c(NCCCCCCCCCNC(=O)c4cc(O)c5c(c4)C(=O)c4cccc(O)c4C5=O)c3C(C1)C2.Cl (racemic)
IC50 (Beta-secretase 1 [1]; read-out: IC50): 120 nM
inhibition [5]: 38%
Papp [2]: 21.5 ×10⁻⁶ cm/s
inhibition [3]: 47.9%
inhibition [4]: 29.6%

CC1=CC2Cc3nc4cc(Cl)ccc4c(NCCCCCCNC(=O)c4cc(O)c5c(c4)C(=O)c4cccc(O)c4C5=O)c3C(C1)C2 (racemic)
IC50 (Cholinesterase): 1070 nM
inhibition (Beta-secretase 1 [20]): inactive
inhibition [5]: 40.8%
inhibition [3]: 68.4%
inhibition [4]: 30.9%
IC50 (Acetylcholinesterase): 1.52 nM

CC1=CC2Cc3nc4cc(Cl)ccc4c(NCCCCCCCCNC(=O)c4cc(O)c5c(c4)C(=O)c4cccc(O)c4C5=O)c3C(C1)C2.Cl (racemic)
IC50 (Beta-secretase 1 [1]; read-out: IC50): 980 nM
inhibition [5]: 33.1%
Papp [2]: 22.4 ×10⁻⁶ cm/s
inhibition [3]: 50.2%
inhibition [4]: 29.2%
